Test results reported in PubChem BioAssay AID1963443 (Molecular Pharmacology Branch, DTP, NCI, 2024).

System: MDA-MB-231 complex spheroids, growth inhibition
Experiment: Anticancer human tumor MDA-MB-231 cell line growth inhibition [Asc];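 further: spheroids exposed to compounds for 7 days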
Conditions: for IC50: curve of first compound; for viability, T/C: stronger effect = lower value
In short: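 Stromal components (HUVEC and hMSC) are co-assembled with the cancer cells into multicellular spheroids. Drugs are then added singly or paired, at concentrations falling by half-log increments from a clinically achievable maximum, capped at 10 microM without known Cmax.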

Compound `Cc1nc(N2CCC3(CC2)COC(C)C3N)c(CO)nc1Sc1ccnc(N)c1Cl` (centres undefined) + CCN1C(C(=O)NC23CCC(C(=O)O)(CC2)CC3)C(c2cccc(Cl)c2F)C2(C(=O)Nc3cc(Cl)ccc32)C12CCCCC2 has an IC50 (second compound 0.03 µM) of 319 nM, an IC50 (second compound 0.0949 µM) of 337 nM and an IC50 (second compound 0.3 µM) of 281 nM. For the same compound, the IC50 (second compound 0.949 µM) was 270 nM, the IC50 (second compound 3 µM) was 157 nM and the viability, T/C (second compound 0.03 µM, first compound 0.00949 µM) was 95.8%. The viability, T/C (second compound 0.03 µM, first compound 0.03 µM) was 95.4%, the viability, T/C (second compound 0.03 µM, first compound 0.0949 µM) was 96.7% and the viability, T/C (second compound 0.03 µM, first compound 0.3 µM) was 52.7%. The viability, T/C (second compound 0.03 µM, first compound 0.949 µM) was 2.27%, the viability, T/C (second compound 0.03 µM, first compound 3 µM) was 0.7% and the viability, T/C (second compound 0.0949 µM, first compound 0.00949 µM) was 95.7%. It also gave a viability, T/C (second compound 0.0949 µM, first compound 0.03 µM) of 95.7%, a viability, T/C (second compound 0.0949 µM, first compound 0.0949 µM) of 87.2% and a viability, T/C (second compound 0.0949 µM, first compound 0.3 µM) of 56%. For the same compound, the viability, T/C (second compound 0.0949 µM, first compound 0.949 µM) was 2.11%, the viability, T/C (second compound 0.0949 µM, first compound 3 µM) was 0.82% and the viability, T/C (second compound 0.3 µM, first compound 0.00949 µM) was 99.6%. For the same compound, the viability, T/C (second compound 0.3 µM, first compound 0.03 µM) was 99%, the viability, T/C (second compound 0.3 µM, first compound 0.0949 µM) was 98.3% and the viability, T/C (second compound 0.3 µM, first compound 0.3 µM) was 47.1%. For the same compound, the viability, T/C (second compound 0.3 µM, first compound 0.949 µM) was 2.58%, the viability, T/C (second compound 0.3 µM, first compound 3 µM) was 0.88% and the viability, T/C (second compound 0.949 µM, first compound 0.00949 µM) was 109%. It also gave a viability, T/C (second compound 0.949 µM, first compound 0.03 µM) of 108%, a viability, T/C (second compound 0.949 µM, first compound 0.0949 µM) of 107% and a viability, T/C (second compound 0.949 µM, first compound 0.3 µM) of 44.2%. The viability, T/C (second compound 0.949 µM, first compound 0.949 µM) was 2.18%, the viability, T/C (second compound 0.949 µM, first compound 3 µM) was 0.9% and the viability, T/C (second compound 3 µM, first compound 0.00949 µM) was 91.1%. The viability, T/C (second compound 3 µM, first compound 0.03 µM) was 89.2%, the viability, T/C (second compound 3 µM, first compound 0.0949 µM) was 81.8% and the viability, T/C (second compound 3 µM, first compound 0.3 µM) was 9.35%. The viability, T/C (second compound 3 µM, first compound 0.949 µM) was 1.26% and the viability, T/C (second compound 3 µM, first compound 3 µM) was 0.54%.
In the case of `C#Cc1c(F)ccc2cc(O)cc(-c3ncc4c(N5CC6CCC(C5)N6)nc(OCC56CCCN5CC(F)C6)nc4c3F)c12` (centres undefined) + CNC(C)C(=O)NC1CN(S(=O)(=O)c2cccc(S(=O)(=O)N3CCC4CCC(C(=O)NC(c5ccccc5)c5ccccc5)N4C(=O)C(NC(=O)C(C)NC)C3)c2)CCC2CCC(C(=O)NC(c3ccccc3)c3ccccc3)N2C1=O, the IC50 (second compound 0.00316 µM) is reported as under 31.6 nM, the IC50 (second compound 0.01 µM) is reported as under 31.6 nM and the IC50 (second compound 0.0316 µM) is reported as under 31.6 nM. For the same compound, the IC50 (second compound 0.1 µM) was under 31.6 nM, the IC50 (second compound 0.316 µM) was 3780 nM and the IC50 (second compound 1 µM) was 2970 nM. The viability, T/C (second compound 0.00316 µM, first compound 0.0316 µM) was 4.06%, the viability, T/C (second compound 0.00316 µM, first compound 0.1 µM) was 5.16% and the viability, T/C (second compound 0.00316 µM, first compound 0.316 µM) was 5.29%. For the same compound, the viability, T/C (second compound 0.00316 µM, first compound 1 µM) was 3.82%, the viability, T/C (second compound 0.00316 µM, first compound 3.16 µM) was 2.11% and the viability, T/C (second compound 0.00316 µM, first compound 10 µM) was 1.85%. For the same compound, the viability, T/C (second compound 0.01 µM, first compound 0.0316 µM) was 1.96%, the viability, T/C (second compound 0.01 µM, first compound 0.1 µM) was 2.54% and the viability, T/C (second compound 0.01 µM, first compound 0.316 µM) was 2.18%. For the same compound, the viability, T/C (second compound 0.01 µM, first compound 1 µM) was 3.28%, the viability, T/C (second compound 0.01 µM, first compound 3.16 µM) was 2.31% and the viability, T/C (second compound 0.01 µM, first compound 10 µM) was 1.91%. The viability, T/C (second compound 0.0316 µM, first compound 0.0316 µM) was 1.62%, the viability, T/C (second compound 0.0316 µM, first compound 0.1 µM) was 2.61% and the viability, T/C (second compound 0.0316 µM, first compound 0.316 µM) was 2.63%. For the same compound, the viability, T/C (second compound 0.0316 µM, first compound 1 µM) was 1.93%, the viability, T/C (second compound 0.0316 µM, first compound 3.16 µM) was 2.58% and the viability, T/C (second compound 0.0316 µM, first compound 10 µM) was 1.22%. The viability, T/C (second compound 0.1 µM, first compound 0.0316 µM) was 1.38%, the viability, T/C (second compound 0.1 µM, first compound 0.1 µM) was 1.67% and the viability, T/C (second compound 0.1 µM, first compound 0.316 µM) was 1.43%. For the same compound, the viability, T/C (second compound 0.1 µM, first compound 1 µM) was 1.74%, the viability, T/C (second compound 0.1 µM, first compound 3.16 µM) was 1.84% and the viability, T/C (second compound 0.1 µM, first compound 10 µM) was 2.09%. It also gave a viability, T/C (second compound 0.316 µM, first compound 0.0316 µM) of 112%, a viability, T/C (second compound 0.316 µM, first compound 0.1 µM) of 94.9% and a viability, T/C (second compound 0.316 µM, first compound 0.316 µM) of 96%. It also gave a viability, T/C (second compound 0.316 µM, first compound 1 µM) of 73%, a viability, T/C (second compound 0.316 µM, first compound 3.16 µM) of 51.6% and a viability, T/C (second compound 0.316 µM, first compound 10 µM) of 34.9%. The viability, T/C (second compound 1 µM, first compound 0.0316 µM) was 99.6%, the viability, T/C (second compound 1 µM, first compound 0.1 µM) was 110% and the viability, T/C (second compound 1 µM, first compound 0.316 µM) was 97.2%. The viability, T/C (second compound 1 µM, first compound 1 µM) was 68.8%, the viability, T/C (second compound 1 µM, first compound 3.16 µM) was 53.4% and the viability, T/C (second compound 1 µM, first compound 10 µM) was 38.7%.
`Cc1nc(N2CCC3(CC2)COC(C)C3N)c(CO)nc1Sc1ccnc(N)c1Cl` (centres undefined) + CNC(C)C(=O)NC1CN(S(=O)(=O)c2cccc(S(=O)(=O)N3CCC4CCC(C(=O)NC(c5ccccc5)c5ccccc5)N4C(=O)C(NC(=O)C(C)NC)C3)c2)CCC2CCC(C(=O)NC(c3ccccc3)c3ccccc3)N2C1=O gave an IC50 (second compound 0.00316 µM) of under 9.49 nM, an IC50 (second compound 0.01 µM) of under 9.49 nM and an IC50 (second compound 0.0316 µM) of under 9.49 nM. It also gave an IC50 (second compound 0.1 µM) of under 9.49 nM, an IC50 (second compound 0.316 µM) of 496 nM and an IC50 (second compound 1 µM) of 487 nM. It also gave a viability, T/C (second compound 0.00316 µM, first compound 0.00949 µM) of 6.2%, a viability, T/C (second compound 0.00316 µM, first compound 0.03 µM) of 3.59% and a viability, T/C (second compound 0.00316 µM, first compound 0.0949 µM) of 3.91%. The viability, T/C (second compound 0.00316 µM, first compound 0.3 µM) was 2.35%, the viability, T/C (second compound 0.00316 µM, first compound 0.949 µM) was 1.9% and the viability, T/C (second compound 0.00316 µM, first compound 3 µM) was 0.75%. The viability, T/C (second compound 0.01 µM, first compound 0.00949 µM) was 3.06%, the viability, T/C (second compound 0.01 µM, first compound 0.03 µM) was 1.64% and the viability, T/C (second compound 0.01 µM, first compound 0.0949 µM) was 2.31%. For the same compound, the viability, T/C (second compound 0.01 µM, first compound 0.3 µM) was 2.09%, the viability, T/C (second compound 0.01 µM, first compound 0.949 µM) was 1.16% and the viability, T/C (second compound 0.01 µM, first compound 3 µM) was 1.06%. For the same compound, the viability, T/C (second compound 0.0316 µM, first compound 0.00949 µM) was 1.57%, the viability, T/C (second compound 0.0316 µM, first compound 0.03 µM) was 2.27% and the viability, T/C (second compound 0.0316 µM, first compound 0.0949 µM) was 1.35%. The viability, T/C (second compound 0.0316 µM, first compound 0.3 µM) was 1%, the viability, T/C (second compound 0.0316 µM, first compound 0.949 µM) was 2.18% and the viability, T/C (second compound 0.0316 µM, first compound 3 µM) was 1.27%. The viability, T/C (second compound 0.1 µM, first compound 0.00949 µM) was 1.75%, the viability, T/C (second compound 0.1 µM, first compound 0.03 µM) was 1.36% and the viability, T/C (second compound 0.1 µM, first compound 0.0949 µM) was 0.97%. It also gave a viability, T/C (second compound 0.1 µM, first compound 0.3 µM) of 0.62%, a viability, T/C (second compound 0.1 µM, first compound 0.949 µM) of 1.23% and a viability, T/C (second compound 0.1 µM, first compound 3 µM) of 1.82%. The viability, T/C (second compound 0.316 µM, first compound 0.00949 µM) was 108%, the viability, T/C (second compound 0.316 µM, first compound 0.03 µM) was 101% and the viability, T/C (second compound 0.316 µM, first compound 0.0949 µM) was 108%. It also gave a viability, T/C (second compound 0.316 µM, first compound 0.3 µM) of 86.6%, a viability, T/C (second compound 0.316 µM, first compound 0.949 µM) of 2.83% and a viability, T/C (second compound 0.316 µM, first compound 3 µM) of 0.94%. The viability, T/C (second compound 1 µM, first compound 0.00949 µM) was 99.5%, the viability, T/C (second compound 1 µM, first compound 0.03 µM) was 113% and the viability, T/C (second compound 1 µM, first compound 0.0949 µM) was 99.9%. The viability, T/C (second compound 1 µM, first compound 0.3 µM) was 83.4%, the viability, T/C (second compound 1 µM, first compound 0.949 µM) was 3.91% and the viability, T/C (second compound 1 µM, first compound 3 µM) was 0.93%.
